This passage reports Potency and outcome results from PubChem BioAssay AID1199 (EPA DSSTox, 2008).

For this data set, the system named is mouse carcinogenicity bioassay, TD50 from CPDB. Put plainly: DSSTox (CPDBAS) Carcinogenic Potency Database Summary Mouse Bioassay Results. In short, it runs like this: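 Chronic long-term mouse cancer bioassays from literature and NCI/NTP, compiled per sex. TD50 is the standardized carcinogenic potency, using the most positive experiment per sex-species; target sites follow author opinion.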

[1] abbreviates: TargetSites_Mouse_Female: no positive results.
The mark [2] stands for this setting: TD50_Mouse_Note: no positive results, TargetSites_Mouse_Female: no positive results.
Where [3] appears, read: TargetSites_Mouse_Female: liver.
Where [4] appears, read: TD50_Mouse_Note: TD50 is harmonic mean of more than one positive test, TargetSites_Mouse_Female: lung.
The mark [5] stands for this setting: TD50_Mouse_Note: TD50 is harmonic mean of more than one positive test, TargetSites_Mouse_Female: liver.
Where [6] appears, read: TD50_Mouse_Note: TD50 is harmonic mean of more than one positive test, TargetSites_Mouse_Female: stomach.
[7] abbreviates: TD50_Mouse_Note: TD50 is harmonic mean of more than one positive test, TargetSites_Mouse_Female: liver, vascular system.
The mark [8] stands for this setting: TD50_Mouse_Note: TD50 is harmonic mean of more than one positive test, TargetSites_Mouse_Female: liver, lung.

Molecules are shown by their SMILES. Calls of active or inactive are those of the source.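 How the source made its calls: active means a tumour-causing dose and a tumour site recorded for mice in at least one sex group; inconclusive means only government mouse studies exist and were judged inadequate; inactive means mouse studies exist but none gave tumours.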

For `Cl/C=C/CCl`, the Potency (TargetSites_Mouse_Female: lung, stomach, urinary bladder) was 0.447 mmol/kg/day and the Potency under setting [1] is 1.06 mmol/kg/day. For the molecule `CCN(CC)C(=O)/C(Cl)=C(\C)OP(=O)(OC)OC`, under setting [2], the outcome is “inactive; no positive results”. On the same count and under the same terms, in the case of `C=CC=O` it was “inactive; no positive results”; in that of `ClCOCCCCCCOCCl`, “inactive”; in that of `Nc1ccc(N)c(Cl)c1`, “inactive; no positive results”.

Consider `C[C@]12CC[C@@H]3c4ccc(O)cc4CC[C@H]3[C@@H]1CC[C@@H]2O`, for which, under setting [2], the result was inactive. With `C=CC(=C)C`, the Potency (TD50_Mouse_Note: TD50 is harmonic mean of more than one positive test, TargetSites_Mouse_Female: harderian gland, pituitary gland, vascular system) is 4.02 mmol/kg/day. For the molecule `C=C(C)C#N`, the outcome under setting [2] was “inactive; no positive results”. On the same count and under the same terms, in the case of `O=C(O)c1cccnc1` it was “inactive; no positive results”. Take `O=C(O)c1cc(Oc2ccc(C(F)(F)F)cc2Cl)ccc1[N+](=O)[O-]`: for the setting “TD50_Mouse_Note: TD50 is harmonic mean of more than one positive test, TargetSites_Mouse_Female: liver, stomach”, the Potency is 0.39 mmol/kg/day. Regarding `CCCN(CCC)S(=O)(=O)c1ccc(C(=O)O)cc1`, the Potency under setting [3] is 1.89 mmol/kg/day. Take `S=C([S-])NCCNC(=S)[S-].[Zn+2]`: under setting [2], the outcome is “inactive; no positive results”. The same measure, in the same setting: in the case of `CCCCOC(=O)c1ccccc1C(=O)OCc1ccccc1` it was “inactive; no positive results”. On to `Nc1ccc2c(c1)C(=O)c1ccccc1C2=O`, for which, under “TD50_Mouse_Note: TD50 is harmonic mean of more than one positive test, TargetSites_Mouse_Female: hematopoietic system, liver”, the Potency is 5.33 mmol/kg/day.

For `COC1=CC(=O)C[C@@H](C)[C@]12Oc1c(Cl)c(OC)cc(OC)c1C2=O`, for the setting “TD50_Mouse_Note: TD50 is harmonic mean of more than one positive test, TargetSites_Mouse_Female: mammary gland”, the Potency was 0.0391 mmol/kg/day. Consider `Clc1nc(Cl)nc(Nc2ccccc2Cl)n1`, for which, under setting [2], the outcome is “inactive; no positive results”.

With `CCO`, the outcome under setting [2] is “inactive; no positive results”. On the same count and under the same terms, then `CN(C)C(=S)SC(=S)N(C)C`, with “inactive; no positive results”. Consider `CCCCCC`, for which the Potency under setting [3] is 352 mmol/kg/day. Take `c1ccc2cc(Nc3ccc(Nc4ccc5ccccc5c4)cc3)ccc2c1`: the outcome under setting [2] is “inactive; no positive results”. Take `O=[N+]([O-])c1ccc(Nc2ccc(Nc3ccccc3)c(S(=O)(=O)O)c2)c([N+](=O)[O-])c1`: the outcome under setting [2] was “inactive; no positive results”. Same read-out and setting: then `CN1C(=O)C(O)N=C(c2ccccc2)c2cc(Cl)ccc21` (stereo not drawn), with “inactive; no positive results”.

For the molecule `Nc1ccc(Cl)c(N)c1`, the Potency under setting [3] was 8.63 mmol/kg/day.

`Oc1ccc(-c2ccccc2)cc1`: the outcome under setting [2] was “inactive; no positive results”.

In the case of `O=C(O)c1ccccc1`, under setting [2], the outcome is “inactive; no positive results”. For `CN(C)C(=S)[S][Bi]([S]C(=S)N(C)C)[S]C(=S)N(C)C`, the outcome under setting [2] was “inactive; no positive results”. Take `C=C1C/C(=C/C)C(=O)O[C@@H]2CCN3CC=C(COC(=O)[C@@]1(O)CO)[C@H]23`: the Potency under setting [4] is 0.00564 mmol/kg/day. As to `C=CCc1ccc(O)c(OC)c1`, the outcome under setting [2] was “inactive; no positive results”. Consider `OCc1ccccc1`, for which, under setting [2], the outcome is “inactive; no positive results”. As to `Clc1cc2c(c(Cl)c1Cl)Oc1c(cc(Cl)c(Cl)c1Cl)O2`, the Potency under setting [5] was 3.66e-06 mmol/kg/day. For the molecule `COP(=O)(OC)O/C(=C\Cl)c1cc(Cl)c(Cl)cc1Cl`, the Potency (TargetSites_Mouse_Female: no positive results - CPDB evaluation based on NCI Technical Report) was 0.623 mmol/kg/day. Consider `COc1ccc(N)c(C)c1`, for which the outcome under setting [2] was “inactive; ntp bioassay inadequate”. For the molecule `COc1cc2c(c3oc(=O)c4c(c13)CCOC4=O)C1C=COC1O2` (stereo not drawn), for the setting “TD50_Mouse_Note: TD50_Mouse_mmol was not calculated for this mixture, but Activiity Score is assigned value of 50 to indicate active”, the outcome was “active; hematopoietic system”.

For the molecule `[S-]c1nc2ccccc2s1.[S-]c1nc2ccccc2s1.[Zn+2]`, under setting [2], the outcome is “inactive; no positive results”. With `CN(N=O)c1ncnc2nc[nH]c12`, under setting [1], the Potency is 0.101 mmol/kg/day. As for `CCOP(=O)(CC1CO1)OCC` (stereo not drawn), under setting [2], the outcome was inactive. Turning to `Nc1ncn[nH]1`, under setting [5], the Potency was 0.301 mmol/kg/day. For the molecule `ClCCOCCCl`, the Potency (TD50_Mouse_Note: TD50 is harmonic mean of more than one positive test, TargetSites_Mouse_Female: no positive results) was 0.0818 mmol/kg/day.

With `[Cl-].[Cl-].[Hg+2]`, the outcome under setting [2] was “inactive; no positive results”. `CCCCNC(N)=O`: the outcome under setting [2] is “inactive; no positive results”. Consider `O=C1CCC(=O)O1`, for which, under setting [2], the outcome is “inactive; no positive results”. With `Cc1[nH]cnc1CSCCN=C(NC#N)N(C)N=O`, under setting [2], the result was inactive. Still for that read-out and setting: in the case of `COc1ccc(N)cc1` it was “inactive; no positive results”. For the molecule `Oc1ccc2c(c1)OCO2`, the Potency under setting [6] is 32.5 mmol/kg/day. As for `CC(C)(OCc1ccc(-c2ccc(Cl)cc2)cc1)C(=O)O`, the Potency under setting [1] is 0.505 mmol/kg/day. With `CCC(Cl)CCC(Cl)C(Cl)CC(Cl)C(Cl)C(Cl)CCl` (stereo not drawn), for the setting “TD50_Mouse_Note: TD50 is harmonic mean of more than one positive test, TD50_Mouse_mmol was not calculated for this mixture, but Activiity, TargetSites_Mouse_Female: liver, thyroid gland”, the outcome was “active; liver”. As for `C1CCOC1`, under setting [3], the Potency was 18 mmol/kg/day. As to `O=c1cc[nH]c(=S)[nH]1`, under setting [5], the Potency is 0.429 mmol/kg/day. For the molecule `C=COC(N)=O`, where the note is “TD50_Mouse_Note: positive test results only by intraperitoneal or intravenous injection, TD50 is harmonic mean of more than one positive, TargetSites_Mouse_Female: liver, vascular system”, the Potency is 0.00142 mmol/kg/day.

Turning to `Cc1ccc(Cl)cc1N`, the Potency under setting [7] is 1.38 mmol/kg/day. Consider `CC1(C)[C@H](C(=O)O[C@H](C#N)c2cccc(Oc3ccccc3)c2)[C@@H]1C=C(Br)Br`, for which the outcome under setting [2] was “inactive; no positive results”. Still for that read-out and setting: then `ClCc1ccccn1`, with “inactive; no positive results”.

On to `Cc1cc(C)nc(NS(=O)(=O)c2ccc(N)cc2)n1`, for which, under “TD50_Mouse_Note: TD50 is harmonic mean of more than one positive test, TargetSites_Mouse_Female: thyroid gland”, the Potency is 5.43 mmol/kg/day.

Consider `CNC(=O)Oc1cccc2ccccc12`, for which the outcome under setting [2] was “inactive; no positive results”. As to `ClCCCl`, the Potency (TD50_Mouse_Note: TD50 is harmonic mean of more than one positive test, TargetSites_Mouse_Female: liver, lung, mammary gland, uterus) is 1.39 mmol/kg/day. `O=CNNc1nc(-c2ccc([N+](=O)[O-])o2)cs1`: the Potency (TD50_Mouse_Note: TD50 is harmonic mean of more than one positive test, TargetSites_Mouse_Female: hematopoietic system, stomach) is 0.0425 mmol/kg/day. Take `[Cd+2].[Cl-].[Cl-]`: under setting [2], the outcome was inactive. The same measure, in the same setting: then `NCCCCCCCCCCC(=O)O`, with “inactive; no positive results”. Take `CN(C)C(=O)Cl`: under “TD50_Mouse_Note: positive test results only by intraperitoneal or intravenous injection, TargetSites_Mouse_Female: peritoneal cavity”, the Potency was 0.0499 mmol/kg/day. With `S=C(S)NCCNC(=S)S`, the outcome under setting [2] was “inactive; no positive results”. With `Cc1ccc(NC(N)=O)cc1`, the Potency under setting [1] was 1.37 mmol/kg/day. `CCOP(=S)(OCC)Oc1ccc([N+](=O)[O-])cc1`: the outcome under setting [2] is “inactive; no positive results”. Regarding `Cc1cc(C)c(N)cc1C`, the Potency under setting [8] was 0.265 mmol/kg/day and the Potency under setting [3] is 0.0453 mmol/kg/day. In the case of `O=S(=O)(O)c1ccc(N=Nc2c(O)ccc3cc(S(=O)(=O)O)ccc23)cc1`, under setting [2], the outcome is “inactive; no positive results”.

With `COc1c(Cl)c(Cl)c(Cl)c(Cl)c1Cl`, the Potency under setting [1] is 0.243 mmol/kg/day. For `O=C(O)Cc1c[nH]c2ccccc12`, the outcome under setting [2] is “inactive; no positive results”. In the case of `CCc1ccccc1`, the Potency under setting [5] is 15.1 mmol/kg/day. Still for that read-out and setting: then `CCn1nc(C)c2c1C(c1ccccc1)=NCC(=O)N2`, with 0.425 mmol/kg/day.

In the case of `CC/C(=C(\c1ccccc1)c1ccc(OCCN(C)C)cc1)c1ccccc1`, the Potency (TD50_Mouse_Note: TD50 is harmonic mean of more than one positive test, TargetSites_Mouse_Female: ovary) is 0.00779 mmol/kg/day.

`C=CCOCC1CO1` (stereo not drawn): the Potency under setting [1] is 1.59 mmol/kg/day. As for `Nc1ccc2c(n1)[nH]c1ccccc12`, the Potency under setting [7] is 0.272 mmol/kg/day. With `OCl`, the outcome under setting [2] was “inactive; no positive results”.

In the case of `CC1CCC(C(C)C)C(O)C1` (stereo not drawn), the outcome under setting [2] is “inactive; no positive results”.

With `COc1cc(-c2ccc(N)c(OC)c2)ccc1N`, the Potency (TD50_Mouse_Note: no positive results are statistically significant, TargetSites_Mouse_Female: no positive results) was 0.233 mmol/kg/day. In the case of `CCn1cc(C(=O)O)c(=O)c2cc3c(cc21)OCO3`, the outcome under setting [2] is “inactive; no positive results”.

Regarding `OCC(CO)(CBr)CBr`, the Potency (TD50_Mouse_Note: TD50 is harmonic mean of more than one positive test, TargetSites_Mouse_Female: harderian gland, lung, subcutaneous tissue) is 0.523 mmol/kg/day.

Regarding `ClCc1ccccc1`, under setting [6], the Potency was 0.486 mmol/kg/day. Turning to `CN(N)C=O`, the Potency (TD50_Mouse_Note: TD50 is harmonic mean of more than one positive test, greater than ten-fold variation among TD50 values for positive res, TargetSites_Mouse_Female: gall bladder, liver, lung, vascular system) was 0.0185 mmol/kg/day. For `CCOP(=S)(OCC)Oc1ccc2c(C)c(Cl)c(=O)oc2c1`, the outcome under setting [2] is “inactive; no positive results”. As to `NC(CCC(=O)O)C(=O)O` (stereo not drawn), the outcome (TD50_Mouse_Note: no positive results) was “inactive; no positive results”. Take `C=C(C)C(=O)OC`: the outcome under setting [2] was “inactive; no positive results”. With `CNN`, the Potency is 0.164 mmol/kg/day under setting [8] and 0.0189 mmol/kg/day under setting [4]. For `O=c1[nH]cc(F)c(=O)[nH]1`, the Potency (TD50_Mouse_Note: TD50 is harmonic mean of more than one positive test, TargetSites_Mouse_Female: hematopoietic system, lung) is 0.0228 mmol/kg/day.

Turning to `OC[C@@H](O)[C@@H](O)[C@H](O)[C@H](O)CO`, the outcome under setting [2] is “inactive; no positive results”. The same measure, in the same setting: then `O=S(=O)([O-])[O-].[O]=[V+2]`, with “inactive; no positive results”; and `O=S(=O)(c1ccc(Cl)cc1)c1cc(Cl)c(Cl)cc1Cl`, with “inactive; no positive results”. Take `CC(Cc1ccccc1)NN` (stereo not drawn): the outcome under setting [2] is “inactive; no positive results”. On the same count and under the same terms, then `O`, with “inactive; no positive results”. For `COP(=O)(OC)OC=C(Cl)Cl`, the Potency under setting [6] is 0.319 mmol/kg/day. `ClC(Cl)Cl`: for the setting “TD50_Mouse_Note: TD50 is harmonic mean of more than one positive test, greater than ten-fold variation among TD50 values for positive res, TargetSites_Mouse_Female: liver”, the Potency was 0.93 mmol/kg/day.
